The text below walks through data of ChEMBL document CHEMBL1148259, “2,4-Bis(octadecanoylamino)benzenesulfonic acid sodium salt as a novel scavenger receptor inhibitor with low molecular weight” (Bioorg Med Chem Lett, 2004).

Molecules are shown by their SMILES. pIC50: −log10 of the molar value.

Experiment [1] addresses T1, Macrophage scavenger receptor types I and II (Mus musculus) (UniProt P30204).
T1 sequence (whole entry): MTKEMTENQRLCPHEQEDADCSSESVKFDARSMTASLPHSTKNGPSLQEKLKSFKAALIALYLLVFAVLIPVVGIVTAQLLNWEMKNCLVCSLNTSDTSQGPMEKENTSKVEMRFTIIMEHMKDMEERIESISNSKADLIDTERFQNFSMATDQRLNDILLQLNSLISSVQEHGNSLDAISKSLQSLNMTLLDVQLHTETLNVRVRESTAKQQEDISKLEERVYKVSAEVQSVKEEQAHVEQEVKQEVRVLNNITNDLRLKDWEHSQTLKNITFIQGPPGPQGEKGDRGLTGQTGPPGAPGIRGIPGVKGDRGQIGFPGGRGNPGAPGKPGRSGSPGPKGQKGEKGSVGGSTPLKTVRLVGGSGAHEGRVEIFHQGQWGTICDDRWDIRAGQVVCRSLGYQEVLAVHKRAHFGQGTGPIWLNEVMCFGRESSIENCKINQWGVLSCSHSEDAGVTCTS
The experiment can be described thus: Percent inhibition of DiI-acetyl-LDL binding to scavenger receptor of mouse peritoneal macrophages at 100 uM. The format is functional.

The target of experiment [2] is T1, Macrophage scavenger receptor types I and II (Mus musculus). Kind of experiment: Activity against acetyl-LDLbinding to scavenger receptor as percent inhibition of incorporation of DiI-acetyl-LDL into mouse peritoneal macrophages at 30 uM.
The target is the same in experiment [3]. The experiment can be described thus: Activity against acetyl-LDLbinding to scavenger receptor as percent inhibition of incorporation of DiI-acetyl-LDL into mouse peritoneal macrophages at 10 uM.
The target is the same in experiment [4]. Kind of experiment: Inhibitory activity against [125I]acetyl-LDL binding to mouse peritoneal macrophage scavenger receptor at 10 uM.
The target is the same in experiment [5]. The experiment can be described thus: Inhibitory activity against [125I]acetyl-LDL binding to mouse peritoneal macrophage scavenger receptor at 30 uM.
For experiment [6] the target is unchanged. Kind of experiment: Inhibitory activity against [125I]-acetyl-LDL binding to mouse peritoneal macrophage scavenger receptor at 100 uM.
Experiment [7] has as its target T2, Macrophage scavenger receptor types I and II (Mus musculus, UniProt P30204).
T2 sequence (P30204 whole entry): T1 sequence (whole entry)
The experiment can be described thus: Inhibitory activity against [125I]acetyl-LDL binding to mouse peritoneal macrophage scavenger receptor.

Broadly, the inhibition is the drop in the measured response relative to a control, in per cent. A high value points to strong suppression. In the case of `CCCCCCCCCCCCCCCCCC(=O)Nc1cc(NC(=O)CCCCCCCCCCCCCCCCC)cc(S(=O)(=O)O)c1`, the inhibition in experiment [1] was found to be 71.2%; in experiment [2], 46.2%; in experiment [3], 18.5%.

In turn, `CCCCCCCCCCCCCCCCCC(=O)Nc1ccc(C(=O)O)c(NC(=O)CCCCCCCCCCCCCCCCC)c1` registered an inhibition in experiment [1] below 10%.

With `CCCCCCCCCCCCCCCCCC(=O)NC(COS(=O)(=O)O)C(=O)NCCCCCCCCCCCCCC` (stereo not drawn), the inhibition is 61.4% in experiment [1]; 6.6% in experiment [4]; 43.8% in experiment [2]; 41.8% in experiment [5]; 81.1% in experiment [6]; 20.5% in experiment [3].

For `CCCCCCCCCC(=O)Nc1ccc(S(=O)(=O)O)c(NC(=O)CCCCCCCCC)c1`, the inhibition in experiment [1] is below 10%.

In experiment [1], `CCCCCCCCCCCCCCCCCC(=O)Nc1ccc(COS(=O)(=O)O)cc1NC(=O)CCCCCCCCCCCCCCCC` displayed an inhibition below 10%.

In the case of `CCCCCCCCCCCCCCCCCCCCCC(=O)Nc1ccc(S(=O)(=O)O)c(NC(=O)CCCCCCCCCCCCCCCCCCCCC)c1`, the values for the inhibition in experiment [1] and in experiment [2] were 85.7% and 48%, respectively.

Regarding `CCCCCCCCCCCCCCCCCC(=O)Nc1ccc(S(=O)(=O)O)cc1`, the inhibition in experiment [1] is below 10%.

For `CCCCCCCCCCCCCCCCCC(=O)Nc1ccc(NC(=O)CCCCCCCCCCCCCCCCC)c(S(=O)(=O)O)c1`, the inhibition in experiment [1] came out at 32.1%.

For the compound `CCCCCCCCCCCCCCCCCC(=O)N1C[C@H](OS(=O)(=O)O)C[C@H]1C(=O)NCCCCCCCCCCCCCC`, the inhibition in experiment [1] came out at 23.7%.

In the case of `CCCCCCCCCCCCCC(=O)Nc1ccc(S(=O)(=O)O)c(NC(=O)CCCCCCCCCCCCC)c1`, the inhibition is 66.6% in experiment [1] and 48% in experiment [2].

As a reminder, the pIC50 is −log10 of the IC50, conventionally taken in molar units. Read a low pIC50 as a large IC50. For the compound `CCCCCCCCCCCCCCCCCC(=O)Nc1ccc(S(=O)(=O)O)c(NC(=O)CCCCCCCCCCCCCCCCC)c1`, the inhibition in experiment [1] stood at 84.6%; in experiment [2] it was 72.5%; in experiment [3], 57%. In experiment [7], the pIC50 was 5.70.
